In patent US10543212B2, “Substituted amines for treating cardiac diseases” (Cardurion Pharmaceuticals, LLC, priority 2017, dated 2020) one finds IC50 data, which are given here for 18 compounds.

T1 sequence (Q13557 1-478 isoform Q13557-12): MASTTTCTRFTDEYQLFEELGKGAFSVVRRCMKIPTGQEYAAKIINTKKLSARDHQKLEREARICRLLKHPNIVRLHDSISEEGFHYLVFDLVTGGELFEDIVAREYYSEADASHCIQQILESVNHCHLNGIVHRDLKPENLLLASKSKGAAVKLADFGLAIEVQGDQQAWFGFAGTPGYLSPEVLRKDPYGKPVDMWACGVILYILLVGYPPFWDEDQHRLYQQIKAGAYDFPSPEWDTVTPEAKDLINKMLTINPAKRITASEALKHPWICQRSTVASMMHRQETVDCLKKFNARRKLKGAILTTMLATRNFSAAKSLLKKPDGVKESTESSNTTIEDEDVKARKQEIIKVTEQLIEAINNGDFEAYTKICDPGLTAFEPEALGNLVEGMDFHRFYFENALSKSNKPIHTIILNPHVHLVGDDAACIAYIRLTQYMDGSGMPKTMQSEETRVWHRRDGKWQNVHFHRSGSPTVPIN

One assay addresses T1, Full-length, GST-tagged, human CaMKIIδ (Homo sapiens, UniProt Q13557).
T1 construct: Full-Length, Glutathione-S-Transferase(GST)-Tagged, Human CaMKIIδ was purchased from Carna Biosciences; purchased Carna Biosciences 02-111
Kind of assay: CaMKIIδ binding assay (TR-FRET with BODIPY-labeled probe ligand). To be noted: CaMKIIδ binding assay, results of Table 2. The method in brief: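 Compounds were tested as 4-fold, eight-point series for 1 hr at room temperature, and IC50 was obtained by logistic fitting against a 3 μM parent-compound control. Signal came from displacement of a 300 nM BODIPY ligand from 0.5 nM GST-CaMKIIδ, detected via Tb-anti-GST in calmodulin/Ca2+ (pH 7.6).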
Consider `Cc1ncc(N2CC(O)C2)cc1Nc1ncc(-c2ccc(Cl)c(O[C@@H](C)Cn3cnnn3)c2)cn1` [Example 523, (S)-1-(5-((5-(3-((1-(1H-tetrazol-1-yl)propan-2-yl)oxy)-4-chlorophenyl)pyrimidin-2-yl)amino)-6-methylpyridin-3-yl)azetidin-3-ol], for which the 50% inhibitory concentration (IC50) is 10 to 100 nM.
On the same count and under the same terms, for `COc1cc2c(cc1Nc1ncc(-c3ccc(Cl)c(O[C@@H](C)Cn4cnnn4)c3)cn1)CCN(CC(F)(F)F)C2` [Example 490, (S)-N-(5-(3-((1-(1H-tetrazol-1-yl)propan-2-yl)oxy)-4-chlorophenyl)pyrimidin-2-yl)-7-methoxy-2-(2,2,2-trifluoroethyl)-1,2,3,4-tetrahydroisoquinolin-6-amine] the value was 10 to 100 nM; for `COc1cc(C2=CCN(C3COC3)CC2)c(C)cc1Nc1ncc(-c2ccc(Cl)c(O[C@@H](C)Cn3cnnn3)c2)cn1` [Example 531, (S)-5-(3-((1-(1H-tetrazol-1-yl)propan-2-yl)oxy)-4-chlorophenyl)-N-(2-methoxy-5-methyl-4-(1-(oxetan-3-yl)-1,2,3,6-tetrahydropyridin-4-yl)phenyl)pyrimidin-2-amine], 10 to 100 nM; for `C[C@@H](Cn1cnnn1)Oc1cc(-c2cnc(Nc3cc4c(cc3Cl)CCN(C(=O)C(F)(F)F)CC4)nc2)ccc1C#N` [Example 525, (S)-2-((1-(1H-tetrazol-1-yl)propan-2-yl)oxy)-4-(2-((8-chloro-3-(2,2,2-trifluoroacetyl)-2,3,4,5-tetrahydro-1H-benzo[d]azepin-7-yl)amino)pyrimidin-5-yl)benzonitrile], 10 to 100 nM.

Still in this assay, the particulars now being: CaMKIIδ binding assay; activity class per Table 2.
On to `C[C@@H](Cn1cnnn1)Oc1cc(-c2cnc(Nc3cn(C4CC5(C4)CN(C4CCOCC4)C5)nc3C(F)(F)C(F)(F)F)nc2)ccc1Cl` [Example 959, (S)-5-(3-((1-(1H-tetrazol-1-yl)propan-2-yl)oxy)-4-chlorophenyl)-N-(3-(perfluoroethyl)-1-(2-(tetrahydro-2H-pyran-4-yl)-2-azaspiro[3.3]heptan-6-yl)-1H-pyrazol-4-yl)pyrimidin-2-amine], for which the IC50 was less than 10 nM.
Still for that read-out and setting: the result for `C[C@@H](Cn1cnnn1)Oc1cc(-c2cnc(Nc3cn(C4CC5(C4)CN(C(=O)OC(C)(C)C)C5)nc3OCC(F)(F)F)nc2)ccc1C(F)F` [Example 948, tert-butyl (S)-6-(4-((5-(3-((1-(1H-tetrazol-1-yl)propan-2-yl)oxy)-4-(difluoromethyl)phenyl)pyrimidin-2-yl)amino)-3-(2,2,2-trifluoroethoxy)-1H-pyrazol-1-yl)-2-azaspiro[3.3]heptane-2-carboxylate] reads no less than 100 nM.
The same measure, in the same setting: for `CC(C)c1nn(C2CC3(C2)CN(C2(C)CCOCC2)C3)cc1Nc1ncc(-c2ccc(Cl)c(O[C@@H](C)Cn3cnnn3)c2)cn1` [Example 960, (S)-5-(3-((1-(1H-tetrazol-1-yl)propan-2-yl)oxy)-4-chlorophenyl)-N-(3-isopropyl-1-(2-(4-methyltetrahydro-2H-pyran-4-yl)-2-azaspiro[3.3]heptan-6-yl)-1H-pyrazol-4-yl)pyrimidin-2-amine] the value was less than 10 nM; for `CCOC(=O)C1(n2cc(Nc3ncc(-c4ccc(Cl)c(O[C@@H](C)Cn5cnnn5)c4)cn3)c(OCC(F)(F)F)n2)CCC1` [Example 915, ethyl (S)-1-(4-((5-(3-((1-(1H-tetrazol-1-yl)propan-2-yl)oxy)-4-chlorophenyl)pyrimidin-2-yl)amino)-3-(2,2,2-trifluoroethoxy)-1H-pyrazol-1-yl)cyclobutane-1-carboxylate], less than 10 nM.
The same measure, in the same setting: the result for `C[C@@H](Cn1cnnn1)Oc1cc(-c2cnc(Nc3cn(CC4(O)CCN(C5CCOCC5)CC4)nc3C(F)(F)F)nc2)ccc1Cl` [Example 905, (S)-4-((4-((5-(3-((1-(1H-tetrazol-1-yl)propan-2-yl)oxy)-4-chlorophenyl)pyrimidin-2-yl)amino)-3-(trifluoromethyl)-1H-pyrazol-1-yl)methyl)-1-(tetrahydro-2H-pyran-4-yl)piperidin-4-ol] reads less than 10 nM.

The same assay, now with this note: Table 2; CaMKIIδ binding assay, activity given as class A/B/C.
In turn, `C[C@@H](Cn1cnnn1)Oc1cc(-c2cnc(Nc3cn(C4CCNCC4)nc3C(F)F)nc2)ccc1Cl` [Example 771, (S)-5-(3-((1-(1H-tetrazol-1-yl)propan-2-yl)oxy)-4-chlorophenyl)-N-(3-(difluoromethyl)-1-(piperidin-4-yl)-1H-pyrazol-4-yl)pyrimidin-2-amine] returned an IC50 of less than 10 nM.
Compound `C[C@@H](Cn1cnnn1)Oc1cc(-c2cnc(Nc3cn(CC4(CO)COC4)nc3C(F)(F)F)nc2)ccc1Cl` [Example 732, (S)-(3-((4-((5-(3-((1-(1H-tetrazol-1-yl)propan-2-yl)oxy)-4-chlorophenyl)pyrimidin-2-yl)amino)-3-(trifluoromethyl)-1H-pyrazol-1-yl)methyl)oxetan-3-yl)methanol] displayed an IC50 of 10 to 100 nM.
`C[C@@H](Cn1cnnn1)Oc1cc(-c2cnc(Nc3ncc(CO)n3C)nc2)ccc1Cl` [Example 750, (S)-(2-((5-(3-((1-(1H-tetrazol-1-yl)propan-2-yl)oxy)-4-chlorophenyl)pyrimidin-2-yl)amino)-1-methyl-1H-imidazol-5-yl)methanol] gave a half-maximal inhibitory concentration (IC50) of no less than 100 nM.

The assay is the same for the next values; noted with them: Table 2; activity class for CaMKIIδ.
For `COc1cc(N2CCN(CC3COC3)CC2)cnc1Nc1ncc(-c2ccc(Cl)c(O[C@@H](C)Cn3cnnn3)c2)cn1` [Example 648, (S)-5-(3-((1-(1H-tetrazol-1-yl)propan-2-yl)oxy)-4-chlorophenyl)-N-(3-methoxy-5-(4-(oxetan-3-ylmethyl)piperazin-1-yl)pyridin-2-yl)pyrimidin-2-amine], the IC50 fell in the range of 10 to 100 nM.
Still for that read-out and setting: for `COc1nc(N2CCN(C3CCOC3)CC2)ccc1Nc1ncc(-c2ccc(Cl)c(O[C@@H](C)Cn3cnnn3)c2)cn1` (stereo partly drawn) [Example 640, 5-(3-(((S)-1-(1H-tetrazol-1-yl)propan-2-yl)oxy)-4-chlorophenyl)-N-(2-methoxy-6-(4-(tetrahydrofuran-3-yl)piperazin-1-yl)pyridin-3-yl)pyrimidin-2-amine] the value was 10 to 100 nM; for `C[C@@H](Cn1cnnn1)Oc1cc(-c2cnc(Nc3cn(CC(=O)N4CCOCC4)nc3C(F)(F)F)nc2)ccc1Cl` [Example 607, (S)-2-(4-((5-(3-((1-(1H-tetrazol-1-yl)propan-2-yl)oxy)-4-chlorophenyl)pyrimidin-2-yl)amino)-3-(trifluoromethyl)-1H-pyrazol-1-yl)-1-morpholinoethan-1-one], less than 10 nM; for `CCn1cc(Nc2ncc(-c3ccc(Cl)c(O[C@@H](C)Cn4cnnn4)c3)cn2)c(N2CCOCC2)n1` [Example 624, (S)-5-(3-((1-(1H-tetrazol-1-yl)propan-2-yl)oxy)-4-chlorophenyl)-N-(1-ethyl-3-morpholino-1H-pyrazol-4-yl)pyrimidin-2-amine], no less than 100 nM.
Regarding `C[C@@H](Cn1cnnn1)Oc1cc(-c2cnc(Nc3cn(CC4CN(C(=O)OC(C)(C)C)C4)nc3C(F)(F)F)nc2)ccc1Cl` [Example 596, tert-butyl (S)-3-((4-((5-(3-((1-(1H-tetrazol-1-yl)propan-2-yl)oxy)-4-chlorophenyl)pyrimidin-2-yl)amino)-3-(trifluoromethyl) -1H-pyrazol-1-yl)methyl)azetidine-1-carboxylate], the IC50 was no less than 100 nM.
Same read-out and setting: for `CC(C(N)=O)n1cc(Nc2ncc(-c3ccc(Cl)c(O[C@@H](C)Cn4cnnn4)c3)cn2)c(C(F)(F)F)n1` (stereo partly drawn) [Example 713, 2-(4-((5-(3-(((S)-1-(1H-tetrazol-1-yl)propan-2-yl)oxy)-4-chlorophenyl)pyrimidin-2-yl)amino)-3-(trifluoromethyl)-1H-pyrazol-1-yl)propanamide] the value was less than 10 nM.

By IC50 is commonly meant the midpoint of a concentration-inhibition curve.
